Values of other authors, collected in US20180346745A1, “WATER-BASED INK COMPOSITION FOR INK JET RECORDING AND COLORING MATERIAL LIQUID” (Seiko Epson Corporation, priority 2017, published 2018).

settings: value defined by OECD Test Guideline 107

| Compound | log P (water-octanol partition coefficient) |
| --- | --- |
| CCCCOCCOCCO [butyl diglycol] | 0.56 |
| CCCOCC(C)O (centres unmarked) [propylene glycol monopropyl ether] | 0.61 |
| CCCCCOCC(O)CO (centres unmarked) [3-pentyloxy-1,2-propanediol] | 0.83 |
| CCCCCCC(O)CO (centres unmarked) [1,2-octane diol] | 1.32 |
| CCCCOCC(C)O (centres unmarked) [propylene glycol monobutyl ether] | 1.14 |
